From US20250144131A1, “POLYSACCHARIDE COMPOUND WITH A DEFINED MOLECULAR STRUCTURE FOR THE TREATMENT OF PULMONARY FIBROSIS” (SHENZHEN YANDAI INVESTMENT CO., LTD, priority 2023, published 2025)

Experiments:
Type in all cases: in vivo, C57BL/6J mice
[1] = system: bleomycin-induced pulmonary fibrosis model; test: Lung function test (EMKA WBP) in bleomycin-induced pulmonary fibrosis mice
Method: (§1) Fifty male SPF C57BL/6J mice were randomized by weight into the normal control group, model control group, positive control group, GLP-4 low-dose group, and GLP-4 high-dose group, with 10 animals in each group. Ten animals not subjected to modeling served as the normal control group. The remaining animals were modeled by administering bleomycin via tracheal injection at 5 mg/kg, 0.1 mL per mouse, one-time administration. Starting on day 7 post-modeling, the study drug, positive drug, or solvent was administered orally at 10 mL/kg once daily for 21 consecutive days. During the experimental period, daily observations were made for each group's food intake, activity, breathing, and responsiveness; pulmonary function was tested before administration and about 24 h after the last dose. After completing pulmonary function tests, the mice were euthanized for pathological sampling.
Lung function: Lung function in mice was measured using the EMKA WBP animal lung function assessment system both before administration and approximately 24 h after the last dose. Measurements included inspiratory (expiratory) duration, maximum inspiratory (expiratory) volume, tidal volume, expiratory volume, relaxation time, minute ventilation, respiratory rate, end inspiratory (expiratory) pause, bronchoconstriction parameters, 50% expiratory flow, alveolar ventilation, and number of breaths.

[2] = system: bleomycin-induced pulmonary fibrosis model; test: Pulmonary histopathology (H&E, pathology scores) in bleomycin-induced pulmonary fibrosis mice
Method: as §1
Pulmonary histopathology: Following lung function tests, mice were euthanized, and a laparotomy was performed. Whole-body perfusion was conducted using saline through the portal vein followed by thoracotomy and perfusion-fixation with 10% formaldehyde solution for 5 min. The trachea was then ligated, the lungs were harvested, and further fixed in formalin solution for 48 h. Hematoxylin and eosin (H&E) staining was performed to observe pathological changes.

[3] = system: bleomycin-induced pulmonary fibrosis model; test: General behavioral observation in bleomycin-induced pulmonary fibrosis mice; conditions: oral 21 days, pirfenidone 225 mg/kg, GLP-4 low-dose 200 mg/kg
Method: as §1
General behavioral observation: During the trial period, daily observations were made on the animals' consumption, activity, breathing, and responsiveness.

[4] = 21 days post-dosing, pirfenidone 225 mg/kg po daily
[5] = prior to administration (one week post-modeling), pirfenidone 225 mg/kg group

Cc1ccc(=O)n(-c2ccccc2)c1 [positive control, pirfenidone]
AV (alveolar ventilation) [1, 4]: 119.87 ± 38.33 mL
EEP (end expiratory pause) [1, 4]: 5.89 ± 0.57 ms
EF50 (50% expiratory flow) [1, 4]: 5.31 ± 0.91 mL/s
EIP (end inspiratory pause) [1, 4]: 18.83 ± 9.94 ms
EV (expiratory volume) [1, 4]: 0.14 ± 0.01 mL
MV (minute ventilation) [1, 4]: 64.98 ± 11.84 mL
PEF (peak expiratory flow) [1, 4]: 5.59 ± 0.86 mL/s
PIF (peak inspiratory flow) [1, 4]: 4.49 ± 0.75 mL/s
Penh (bronchoconstriction parameters) [1, 4]: 0.56 ± 0.22
RT (relaxation time) [1, 4]: 57.72 ± 22.68 ms
TV (tidal volume) [1, 4]: 0.14 ± 0.01 mL
Te (expiratory duration) [1, 4]: 73.20 ± 22.54 ms
Ti (inspiratory duration) [1, 4]: 79.85 ± 12.82 ms
n (number of breaths) [1, 4]: 40.22 ± 17.53
Lung function indices compared to the model control group ([1]; bleomycin mice, 21 days post-dosing, pirfenidone 225 mg/kg, GLP-4 low-dose 200 mg/kg): significant increases in PIF, PEF, TV, EV, MV, EF50, and alveolar ventilation (AV)
AV (alveolar ventilation) [1, 5]: 70.49 ± 10.76 mL
EEP (end expiratory pause) [1, 5]: 5.70 ± 0.71 ms
EF50 (50% expiratory flow) [1, 5]: 5.68 ± 0.95 mL/s
EIP (end inspiratory pause) [1, 5]: 62.63 ± 33.56 ms
EV (expiratory volume) [1, 5]: 0.15 ± 0.02 mL
MV (minute ventilation) [1, 5]: 52.78 ± 12.68 mL
PEF (peak expiratory flow) [1, 5]: 5.94 ± 0.94 mL/s
PIF (peak inspiratory flow) [1, 5]: 4.63 ± 0.69 mL/s
Penh (bronchoconstriction parameters) [1, 5]: 0.44 ± 0.15
RT (relaxation time) [1, 5]: 105.6 ± 46.61 ms
TV (tidal volume) [1, 5]: 0.15 ± 0.02 mL
Te (expiratory duration) [1, 5]: 120.91 ± 48.12 ms
Ti (inspiratory duration) [1, 5]: 109.26 ± 23.25 ms
n (number of breaths) [1, 5]: 23.82 ± 4.54
Fibrotic tissue proliferation ([2]; bleomycin mice, H&E, pirfenidone 225 mg/kg, GLP-4 low-dose 200 mg/kg): no fibrotic tissue proliferation
Pathology score ([2]; lung, pirfenidone 225 mg/kg po daily, 21 days): 6.22 ± 3.31
General behavior compared to the model control group [3]: noticeable improvements in appetite, activity, breathing, responsiveness, and fur condition
